Assay results published in ChEMBL document CHEMBL4145552, “Marine derived xyloketal derivatives exhibit anti-stress and anti-ageing effects through HSF pathway in Caenorhabditis elegans” (2018).
The source made the active and inactive calls. The rule behind the calls is not given here.

What was measured:
Caenorhabditis elegans [1] = experiment: Protection against thermal stress in Caenorhabditis elegans N2 assessed as increase in mean survival time at 100 uM at 37 degC measured every 1 hr post treatment relative to control; assay type: functional
Caenorhabditis elegans [2] = experiment: Protection against thermal stress in Caenorhabditis elegans N2 assessed as increase in mean survival time at 300 uM at 37 degC measured every 1 hr post treatment relative to control; assay type: functional
Caenorhabditis elegans [3] = experiment: Protection against thermal stress in Caenorhabditis elegans PS3551 harboring HSF-1 mutant assessed as mean survival time at 37 degC measured every 1 hr up to 8 hrs post treatment (reference value: 4.37 +/- 0.1 hrs); assay type: functional
Caenorhabditis elegans [4] = experiment: In vivo activation of HSF-1 pathway in Caenorhabditis elegans N2 assessed as increase in HSP70 protein expression by Western blot analysis relative to control; assay type: functional
Caenorhabditis elegans [5] = experiment: Anti-ageing activity in Caenorhabditis elegans N2 assessed as increase in life span at 300 uM relative to control; assay type: functional
Caenorhabditis elegans [6] = experiment: Anti-ageing activity in Caenorhabditis elegans N2 assessed as increase in rate of health span on bending in lifespan at 300 uM measured for 3 secs at 3 days time interval up to 16 days relative to control; assay type: functional
Caenorhabditis elegans [7] = experiment: Anti-ageing activity in Caenorhabditis elegans N2 assessed as increase in rate of health span on pumping in lifespan at 300 uM measured for 10 secs at 2 days time interval up to 21 days by dissecting microscopic method relative to control; assay type: functional
Caenorhabditis elegans [8] = experiment: Anti-ageing activity in Caenorhabditis elegans N2 assessed as increase in rate of health span in maximal lifespan at 300 uM; assay type: functional, organism-based
Caenorhabditis elegans [9] = experiment: Anti-ageing activity in Caenorhabditis elegans PS3551 harboring HSF-1 mutant assessed as increase in life span by measuring mean survival time measured up to 20 days post treatment (reference value: 10.89 +/- 0.17 day); assay type: functional
Caenorhabditis elegans [10] = experiment: Protection against amyloid beta aggregation-induced paralysis in Caenorhabditis elegans CL4176 harboring temperature-inducible human amyloid beta (3 to 42) transgene assessed as time delay in progression of paralysis at 26 degC after 36 hrs; assay type: functional

Structure (SMILES)	Activity (Caenorhabditis elegans [1])	further results
C[C@H]1CO[C@]2(C)Oc3c(c4c(c5c3C[C@@H]3[C@@H](C)CO[C@]3(C)O5)CN(C)CO4)C[C@H]12	Active	
COC(=O)C(Cc1cc2ccccc2[nH]1)NC(=O)c1c(O)c2c(c3c1O[C@@]1(C)OC[C@H](C)[C@H]1C3)O[C@@]1(C)OC[C@H](C)[C@H]1C2 (stereo not given in full)	Active	
CCCCOc1cc2c(c3c1C[C@@H]1[C@@H](C)CO[C@]1(C)O3)C[C@@H]1[C@@H](C)CO[C@]1(C)O2	Active	Activity (Caenorhabditis elegans [2]): Active
CNC(=O)c1c(O)c2c(c3c1OC1OCCCC1C3)OC1OCCCC1C2 (stereo not given)	Active	
COC(=O)c1c(O)c2c(c3c1O[C@@]1(C)OC[C@H](C)[C@H]1C3)O[C@@]1(C)OC[C@H](C)[C@H]1C2	Active	Activity (Caenorhabditis elegans [2]): Active
O=c1c(O)c(-c2ccc(O)c(O)c2)oc2cc(O)cc(O)c12 [QUERCETIN]	8.81%	
CCCCN1COc2c3c(c4c(c2C1)O[C@@]1(C)OC[C@H](C)[C@H]1C4)O[C@@]1(C)OC[C@H](C)[C@H]1C3	Active	
C[C@H]1CO[C@]2(C)Oc3cc(OC/C=C/c4ccccc4)c4c(c3C[C@H]12)O[C@@]1(C)OC[C@H](C)[C@H]1C4	inactive	
COC(=O)CNC(=O)c1c(O)c2c(c3c1O[C@@]1(C)OC[C@H](C)[C@H]1C3)O[C@@]1(C)OC[C@H](C)[C@H]1C2	Active	Activity (Caenorhabditis elegans [2]): Active
C[C@H]1CO[C@]2(C)Oc3c(c4c(c5c3C[C@@H]3[C@@H](C)CO[C@]3(C)O5)CN(c3ccc(Cl)cc3)CO4)C[C@H]12	Active	
COc1ccc(N2COc3c4c(c5c(c3C2)O[C@@]2(C)OC[C@H](C)[C@H]2C5)O[C@@]2(C)OC[C@H](C)[C@H]2C4)cc1	Active	
C[C@H]1CO[C@]2(C)Oc3c(c4c(c5c3C[C@@H]3[C@@H](C)CO[C@]3(C)O5)CN(c3ccc(C(=O)O)cc3)CO4)C[C@H]12	Active	
C[C@H]1CO[C@]2(C)Oc3c(c4c(c5c3C[C@@H]3[C@@H](C)CO[C@]3(C)O5)CN(c3ccc(Br)cc3)CO4)C[C@H]12	Active	Activity (Caenorhabditis elegans [2]): Active
COC(=O)c1c(O)c2c(c3c1OC1OCCCC1C3)OC1OCCCC1C2 (stereo not given)	Active	
C[C@H]1CO[C@]2(C)Oc3c(c(O)c(C(=O)NCCc4ccc(O)cc4)c4c3C[C@@H]3[C@@H](C)CO[C@]3(C)O4)C[C@H]12	Active	
COC(=O)C(Cc1ccc(O)cc1)NC(=O)c1c(O)c2c(c3c1O[C@@]1(C)OC[C@H](C)[C@H]1C3)O[C@@]1(C)OC[C@H](C)[C@H]1C2 (stereo not given in full)	Active	Activity (Caenorhabditis elegans [2]): Active
C[C@H]1CO[C@]2(C)Oc3c(c4c(c5c3C[C@@H]3[C@@H](C)CO[C@]3(C)O5)CN(CCOCCO)CO4)C[C@H]12	Active	
C[C@H]1CO[C@]2(C)Oc3c(c4c(c5c3C[C@@H]3[C@@H](C)CO[C@]3(C)O5)CN(c3ccc([N+](=O)[O-])cc3)CO4)C[C@H]12	inactive	
CCCCSC(=O)c1c(O)c2c(c3c1OC1OCCCC1C3)OC1OCCCC1C2 (stereo not given)	Active	
COc1ccc(NC(=O)c2c(O)c3c(c4c2O[C@@]2(C)OC[C@H](C)[C@H]2C4)O[C@@]2(C)OC[C@H](C)[C@H]2C3)cc1	Active	
C[C@H]1CO[C@]2(C)Oc3c(c4c(c5c3C[C@@H]3[C@@H](C)CO[C@]3(C)O5)CN(c3ccc(O)cc3)CO4)C[C@H]12	15.38%	MST (Caenorhabditis elegans [3]): 4.32 h; Activity (Caenorhabditis elegans [2]): <=23.96%; Activity (Caenorhabditis elegans [4]): 28%; Activity (Caenorhabditis elegans [5]): 11%; Activity (Caenorhabditis elegans [6]): <=22%; Activity (Caenorhabditis elegans [7]): 16%; Activity (Caenorhabditis elegans [8]): Active; MST (Caenorhabditis elegans [9]): 10.99 days; Time (Caenorhabditis elegans [10]): 2.8 h
C[C@H]1CO[C@]2(C)Oc3c(c4c(c5c3C[C@@H]3[C@@H](C)CO[C@]3(C)O5)CN(c3ccc(I)cc3)CO4)C[C@H]12	Active	
C[C@H]1CO[C@]2(C)Oc3c(c4c(c5c3C[C@@H]3[C@@H](C)CO[C@]3(C)O5)CN(c3ccc(F)cc3)CO4)C[C@H]12	Active	
C[C@H]1CO[C@]2(C)Oc3c(c4c(c5c3C[C@@H]3[C@@H](C)CO[C@]3(C)O5)CN(c3ccccc3)CO4)C[C@H]12	inactive	
COC1(C)CCc2c(cc(O)c3c2OC(C)(OC)CC3)O1 (stereo not given)	Active	
CC1CC2Cc3c(cc(O)c4c3OC3(C)OC(C)CC3C4)OC2(C)O1 (stereo not given)	inactive	
Oc1cc2c(c3c1CC1CCCOC1O3)CC1CCCOC1O2 (stereo not given)	Active	
C[C@H]1CO[C@]2(C)Oc3cc(O)c4c(c3C[C@H]12)O[C@@]1(C)OC[C@H](C)[C@H]1C4	Active	Activity (Caenorhabditis elegans [2]): Active
C[C@H]1CO[C@]2(C)Oc3c(c(O)c(C(=O)Nc4ccc(F)cc4)c4c3C[C@@H]3[C@@H](C)CO[C@]3(C)O4)C[C@H]12	Active	
C[C@H]1CO[C@]2(C)Oc3c(c(O)c(C(=O)O)c4c3C[C@@H]3[C@@H](C)CO[C@]3(C)O4)C[C@H]12	Active	
